Key:
[1] = test system: hypoxic pulmonary vasoconstriction (HPV) in mice; test: Redistribution of pulmonary blood flow (QLPA/QPA) after left mainstem bronchus occlusion (LMBO), murine HPV model; format: in vivo, mouse
Protocol: Group 3: endotoxin-treated+L-NIL. SV129/B6F1 wild-type mice (n=5) were injected intraperitoneally with 10 mg/kg E. coli 011B4 endotoxin dissolved in 0.2 mL saline. Three hours after the endotoxin challenge, mice were treated with L-NIL 5 mg/kg intraperitoneally. Studies were performed 22 hours after the endotoxin challenge. In additional SV129/B6F1 mice with (n=5) and without (n=4) a prior challenge of endotoxin (22 hours earlier), the acute response to an intravenous bolus of 5 mg/kg L-NIL administered during LMBO, was studied.
Group 4: prolonged exposure to 4 or 40 ppm NO. Saline-treated SV129 wild-type mice (n=5) and NOS2-deficient mice (n=5) breathed 40 ppm NO in air for 22 hours and were studied 1 hour after discontinuation of NO inhalation. SV129 wild-type mice (n=5) and NOS2-deficient mice (n=5) breathed 40 ppm NO in air for 22 hours after challenge with 10 mg/kg endotoxin intraperitoneally and were studied 1 hour after discontinuation of NO inhalation. Additional NOS2-deficient mice (n=4) breathed 4 ppm of NO in air for 22 hours after challenge with 10 mg/kg endotoxin intraperitoneally and were studied 1 hour after discontinuation of NO inhalation.
Experimental preparation. Mice were anesthetized by intraperitoneal injection of ketamine (0.1 mg/g body weight [bw]). Tracheostomy and arterial catheterization were performed as described previously (Steudel et al., 1997, Circ. Res. 81:34-41). A custom-made endotracheal tube (22G Angiocath; Becton Dickinson Healthcare Systems, Sandy, Utah, USA), combined with a 2 French Fogarty arterial embolization catheter (Baxter Healthcare Corp., Irvine, Calif., USA) was inserted into the trachea, with the balloon tip of the Fogarty catheter initially remaining in the trachea. Volume-controlled ventilation was initiated at a respiratory rate of 110-120 breaths per minute, at FiO2 1.0, a peak inspiratory pressure of 13 cm H2O, and a positive end-expiratory pressure level of 2-3 cm H2O. A right parasternal thoracotomy was performed, and a small-vessel ultrasonic flow probe (1RB; Transonic Instruments, Ithaca, N.Y.) was placed around the right pulmonary artery and fixed in position using a micromanipulator (X-tra Hand; TechniTool, Plymouth, Pa.). A 4-0 silk suture was positioned around the left main pulmonary artery to allow transient vascular occlusion. A pulmonary artery catheter (PE10) was inserted into the main pulmonary artery by direct puncture. In other experiments, a lower thoracic aortic flow probe was placed as reported previously (Steudel et al., supra).
Blood flow and pressure measurements. Mean systemic arterial pressure (PSA), mean pulmonary artery pressure (PPA), and in some studies PLA, were continuously monitored using biomedical amplifiers (Hewlett Packard 8805C, Palo Alto, Calif.; Siemens Sirecust 960, Danvers, Mass.). Mean lower thoracic aortic flow (QLTAF) and right pulmonary artery flow (QRPA) were measured with small vessel flow probes connected to a flowmeter (T106; Transonic Instruments). In some experiments, left ventricular end-diastolic pressure was measured with a 1.4 Fr. Millar catheter. The catheter was advanced through the right carotid artery into the left ventricle. […] All monitoring equipment was calibrated before each experiment.
Differential measurement of left and right pulmonary artery flow. To assess the contribution of QRPA and left pulmonary artery flow (QLPA) to total pulmonary artery flow (QPA), transient occlusion (90 seconds) of the left pulmonary artery (QLPA) was performed. QRPA during acute left pulmonary artery occlusion was considered to be QPA (i.e., cardiac output) and correlated closely (r2=0.88; y=0.95x+0.38; n=9) with QLTAF. QLPA was calculated as the difference between QRPA during left pulmonary artery occlusion (QPA) and QRPA with a patent left pulmonary artery (QLPA=QPA−QRPA). Absolute values of respective flows were recorded, and the fractional distribution of flow to the right and left lungs (QRPA/QPA and QLPA/QPA) was calculated. […]

[2] = Lung wet/dry ratio (Example 2); format: in vivo, mouse; details: breathing 4 or 40 ppm NO for 22 hours
Protocol: Lung wet/dry ratio. After euthanasia with pentobarbital (0.1 mg/g intraperitoneally), both lungs, excluding hilar structures, were excised, blotted, and immediately weighed. Thereafter, the tissue was dried in a microwave oven for 60 minutes, as described previously (20), and reweighed. Lung wet/dry ratio was calculated.

[N]=O [NO, Nitric oxide]
reduction of QLPA/QPA after LMBO ([1]; endotoxin-treated NOS2-deficient mice after prolonged inhalation of 40 ppm NO for 22 hours): 20±7% | reduction of QLPA/QPA after LMBO ([1]; endotoxin-treated NOS2-deficient mice breathing 4 ppm NO for 22 hours): 62±2% | reduction of QLPA/QPA after LMBO ([1]; endotoxin-treated wild-type mice breathing 40 ppm NO for 22 hours): 19±10% | reduction of QLPA/QPA after LMBO ([1]; saline-treated NOS2-deficient mice after breathing 40 ppm NO for 22 hours, measured 1 hour later): 50±11% | reduction of QLPA/QPA after LMBO ([1]; saline-treated wild-type mice after breathing 40 ppm NO for 22 hours, measured 1 hour later): 51±10% | wet/dry lung weight ratios [2]: did not alter

— patent publication US6935334B2, “Enhancing therapeutic effectiveness of nitric oxide inhalation” (The General Hospital Corporation, priority 2000, dated 2005)
